{
  "source": "patent US12728186B2",
  "about": "“Methods and kits for preparing pathogen-inactivated whole blood” (priority 2018, dated 2026)",
  "type_in_all_cases": "physicochemical",
  "key": {"[1]": {"experiment": "Residual amustaline, Example 8 (2-container processing before component preparation)", "conditions": "Units 2-7", "experimental": "Additionally, a study was performed to evaluate plasma and red blood cells prepared from a pathogen-inactivated whole blood composition, either shortly after the whole blood PI treatment process, or after storing the pathogen-inactivated whole blood at 4° C. prior to preparing the plasma and red blood cell components. Donor whole blood units were pooled and split into seven units (e.g., to standardize across units), and subjected to treatment conditions as follows. Unit 1 was the control and treated only with saline, while units 2-7 were treated with amustaline and GSH, at concentrations of about 0.2 mM and 2.0 mM, respectively. Following addition of the amustaline and GSH, or the saline, in the first container (bag), the units were incubated at 22° C. for 22 hours, and then transferred to the second container (bag). Sampling was done at the time of transfer, and also at 24 hours and 26 hours (2 or 4 hours post-transfer, also incubated at 22° C.), for analysis of residual amustaline, hemolysis and/or fibrinogen and Factor VIII levels. […] Additionally, at Days 2, 5 and 7, samples were removed from the stored pathogen-inactivated whole blood, centrifuged to obtain plasma and red blood cells, and similarly analyzed. […]"}, "[2]": {"experiment": "Residual unreacted amustaline by LCMS, Example 4 (1-, 2- or 3-container kits)", "conditions": "for Residual amustaline levels in pathogen-inactivated whole blood, 20 hr / Residual amustaline levels in pathogen-inactivated whole blood, 22 hr / Residual amustaline levels in pathogen-inactivated whole blood, 24 hr / Residual amustaline levels in pathogen-inactivated whole blood, 26 hr: 22° C.", "experimental": "Another study was performed to evaluate the preparation of pathogen-inactivated whole blood using amustaline and GSH, in 1-container, 2-container or 3-container kits of the present disclosure. Six ABO-matched whole blood units in anticoagulant were pooled and split into seven units of ~450 mL. The seven whole blood units were subjected to pathogen inactivation under one of three conditions—with no transfer step between containers, one transfer step between two containers, or two transfer steps between three containers (Table 5). Amustaline and GSH were added to the whole blood units by sterile docking of a filter set as previously described to the tubing of an input port of the first container that contained the whole blood. Unit 1 was treated with amustaline and GSH at 0.2 mM and 2.0 mM final concentrations, respectively, in the first container and incubated at 22° C., with samples taken at 20, 22, 24 and 26 hours, with no further container transfers. For units 2-4, amustaline and GSH were added to the whole blood (0.2 mM and 2.0 mM final concentrations, respectively) in the first container and incubated at 22° C. for 20 hours. A sample was taken at 20 hours, along with transfer to a second bag and further incubation at 22° C., with additional sampling at 2 hour intervals (22, 24 and 26 hr). For units 5-7, amustaline and GSH were added to the whole blood (0.2 mM and 2.0 mM final concentrations, respectively) in the first container and the mixture transferred to a second container, followed by incubation at 22° C. for 20 hours. A sample was taken at 20 hours, along with transfer to a third bag and further incubation at 22° C., with additional sampling at 2 hour intervals (22, 24 and 26 hr).\nSamples were analyzed by LCMS to determine the level of residual, unreacted amustaline as previously described."}, "[3]": {"experiment": "Residual amustaline by LCMS, Example 6 further example (direct donor collection into 2-container kit)", "conditions": "donor blood collected into 2-container kit with CPDA-1; 22° C. 20 hours, second container 2-4 hours", "experimental": "In another example, a 2-container kit comprising a treatment container and a filter set (e.g., described above) for introducing the amustaline/GSH (e.g., FIG. 8c) is used to collect from a donor 450 mL of whole blood into the first container that contains 63 mL of anticoagulant CPDA-1 (e.g., blood:anticoagulant ratio approximately 7:1), through the first inlet port. The collection line is then closed using a medical tubing clamp and the whole blood and anticoagulant solution are mixed. The pathogen inactivation compound amustaline and the quencher GSH are next added to the whole blood in the first container through the second port, to final concentrations of about 0.2 mM and 2.0 mM, respectively. The mixture of whole blood, PIC and quencher are incubated at 22° C. for 20 hours, followed by transfer of the mixture to the second container, clamping the tubing between the first and second containers, and incubating the mixture at 22° C. for a further 2-4 hours to provide a pathogen-inactivated whole blood unit."}, "[4]": {"conditions": "Unit 1, no transfer (1 bag kit)"}, "[5]": {"conditions": "Units 2-4, 1x transfer (2 bag kit), to second bag at 20 hr"}, "[6]": {"conditions": "Units 5-7, 2x transfer (3 bag kit), second container after addition, third bag at 20 hr"}},
  "note": "Several values for one entry are separate records, joined by “and”; a condition that tells them apart may be missing. Identical values can stand only once.",
  "data": [
    {"smiles": "O=C(CCNc1c2ccccc2nc2ccccc12)OCCN(CCCl)CCCl", "note": "[amustaline]", "values": [
      {"measurement": "Residual amustaline levels in pathogen-inactivated whole blood, 22 hr", "setting": "[1]; 22 hr (time of transfer), first container 22° C. for 22 hours, then second container", "result": "1.46 nM and 1.39 nM and 1.35 nM and 1.96 nM and 1.84 nM and 1.55 nM"},
      {"measurement": "Residual amustaline levels in pathogen-inactivated whole blood, 26 hr", "setting": "[1]; 26 hr (4 hours post-transfer, 22° C.), second container from 22 hr", "result": "BLOQ (BLOQ = Below Limit of Quantitation (e.g., < 0.75 nM))"},
      {"measurement": "level of amustaline after PI processing, 2-container and 3-container kits", "setting": "[2]; 2-container and 3-container kits, after transfer at 20 hr", "result": "below the limit of quantitation"},
      {"measurement": "Residual amustaline levels in pathogen-inactivated whole blood, 20 hr", "setting": "[2]; 20 hr (at transfer to third bag), Units 5-7, 2x transfer (3 bag kit), second container after addition, third bag at 20 hr", "result": "1.47 nM and 1.46 nM and 1.53 nM"},
      {"measurement": "Residual amustaline levels in pathogen-inactivated whole blood, 20 hr", "setting": "[2]; 20 hr (at transfer), Units 2-4, 1x transfer (2 bag kit), to second bag at 20 hr", "result": "1.53 nM and 1.65 nM and 1.66 nM"},
      {"measurement": "Residual amustaline levels in pathogen-inactivated whole blood, 20 hr", "setting": "[2]; 20 hr, Unit 1, no transfer (1 bag kit)", "result": 1.47, "unit": "nM"},
      {"measurement": "Residual amustaline levels in pathogen-inactivated whole blood, 22 hr", "setting": "[2]; [4]", "result": 1.54, "unit": "nM"},
      {"measurement": "Residual amustaline levels in pathogen-inactivated whole blood, 22 hr", "setting": "[2]; [5]", "result": "BLOQ (BLOQ = Below Limit of Quantitation (e.g., < 0.75 nM))"},
      {"measurement": "Residual amustaline levels in pathogen-inactivated whole blood, 22 hr", "setting": "[2]; [6]", "result": "BLOQ (BLOQ = Below Limit of Quantitation (e.g., < 0.75 nM))"},
      {"measurement": "Residual amustaline levels in pathogen-inactivated whole blood, 24 hr", "setting": "[2]; [4]", "result": 1.39, "unit": "nM"},
      {"measurement": "Residual amustaline levels in pathogen-inactivated whole blood, 24 hr", "setting": "[2]; [5]", "result": "BLOQ (BLOQ = Below Limit of Quantitation (e.g., < 0.75 nM))"},
      {"measurement": "Residual amustaline levels in pathogen-inactivated whole blood, 24 hr", "setting": "[2]; [6]", "result": "BLOQ (BLOQ = Below Limit of Quantitation (e.g., < 0.75 nM))"},
      {"measurement": "Residual amustaline levels in pathogen-inactivated whole blood, 26 hr", "setting": "[2]; [4]", "result": 1.32, "unit": "nM"},
      {"measurement": "Residual amustaline levels in pathogen-inactivated whole blood, 26 hr", "setting": "[2]; [5]", "result": "BLOQ (BLOQ = Below Limit of Quantitation (e.g., < 0.75 nM))"},
      {"measurement": "Residual amustaline levels in pathogen-inactivated whole blood, 26 hr", "setting": "[2]; [6]", "result": "BLOQ (BLOQ = Below Limit of Quantitation (e.g., < 0.75 nM))"},
      {"measurement": "Residual amustaline levels in the pathogen-inactivated whole blood preparation", "setting": "[3]", "result": "below 1 nm"}
    ]}
  ]
}
